Experimental data taken from patent US9492471B2, “Methods of treating a disease or disorder associated with Bruton'S Tyrosine Kinase” (Celgene Avilomics Research, Inc., priority 2013, dated 2016).
Where two headings read alike, the source gives them in different places.

Columns and labels:
Assay in all cases: HotSpot kinase profiling
Format in all cases: biochemical
ALK5/TGFBR1 = biological target: T1, ALK5/TGFBR1 (Homo sapiens, UniProt P36897)
T1 construct: purchased Reaction Biology Corp
T1 sequence (P36897 34-503): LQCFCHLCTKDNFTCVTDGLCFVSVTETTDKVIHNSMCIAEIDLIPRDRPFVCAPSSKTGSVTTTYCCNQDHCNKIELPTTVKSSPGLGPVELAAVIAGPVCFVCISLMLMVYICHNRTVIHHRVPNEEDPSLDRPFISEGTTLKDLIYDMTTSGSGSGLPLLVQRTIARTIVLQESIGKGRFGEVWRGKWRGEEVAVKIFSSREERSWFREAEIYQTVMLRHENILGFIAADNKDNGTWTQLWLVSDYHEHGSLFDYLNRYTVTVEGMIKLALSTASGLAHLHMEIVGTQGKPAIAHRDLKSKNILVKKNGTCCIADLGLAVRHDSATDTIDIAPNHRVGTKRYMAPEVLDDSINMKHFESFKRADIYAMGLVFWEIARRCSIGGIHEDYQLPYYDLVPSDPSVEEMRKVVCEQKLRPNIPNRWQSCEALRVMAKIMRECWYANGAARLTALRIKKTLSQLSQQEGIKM
Protocol: (§1) The binding assay system for profiling kinase activity were based upon HotSpot technology (Reaction Biology Corp.; Malvern, Pa., USA) and utilized radio-isotope-based P81 filtration. […] Substrates for the various kinases tested against Compound 2 (substrate information available on the Reaction Biology Corp. website) were prepared fresh daily in Reaction Buffer. Any required cofactors were then added to the substrate solution. The identification and selection of the appropriate cofactor for each kinase is within the ability of a person skilled in the art. See, for example, Handbook of Assay Development in Drug Discovery, Ed. Lisa K. Minor, 2006: CRC Press, Boca Raton, Fla.; Gao et al., “A broad activity screen in support of a chemogenomic map for kinase signalling research and drug discovery,” Biochem J. 2013, 451(2): 313-28; and Eglen et al., “Drug discovery and the human kinome: Recent trends,” Pharmacology & Therapeutics 2011, 130(2): 144-156. The kinase was then added to the substrate solution and gently mixed. […] This was followed by incubation at room temperature for 2 h. The reaction was terminated and any unreacted phosphate was washed away using 0.1% phosphoric acid prior to detection utilizing a proprietary technology. […] DMSO was used as the negative control.
(§2) Percent inhibition was expressed as an average where the assay was performed more than once, e.g., in duplicate.

MAPKAPK5/PRAK = biological target: T2, MAPKAPK5/PRAK (Homo sapiens, UniProt Q8IW41)
T2 construct: purchased Reaction Biology Corp
T2 sequence (Q8IW41 1-473): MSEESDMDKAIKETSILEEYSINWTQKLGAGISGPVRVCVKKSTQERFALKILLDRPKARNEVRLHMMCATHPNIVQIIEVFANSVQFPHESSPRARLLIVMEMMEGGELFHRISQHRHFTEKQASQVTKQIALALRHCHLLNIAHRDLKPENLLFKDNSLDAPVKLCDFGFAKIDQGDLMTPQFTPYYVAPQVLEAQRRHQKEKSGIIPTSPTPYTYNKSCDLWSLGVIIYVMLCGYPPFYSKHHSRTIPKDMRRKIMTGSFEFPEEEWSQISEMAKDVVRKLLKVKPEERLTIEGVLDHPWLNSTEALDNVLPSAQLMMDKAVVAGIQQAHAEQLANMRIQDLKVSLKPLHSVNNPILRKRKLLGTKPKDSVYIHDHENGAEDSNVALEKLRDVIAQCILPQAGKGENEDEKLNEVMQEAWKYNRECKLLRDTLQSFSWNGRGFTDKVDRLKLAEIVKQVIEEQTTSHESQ
Protocol: as §1, §2

WNK3 = biological target: T3, WNK3 (Homo sapiens, UniProt Q9BYP7)
T3 construct: purchased Reaction Biology Corp
Protocol: as §1, §2

DYRK3 = biological target: T4, DYRK3 (Homo sapiens, UniProt O43781)
T4 construct: purchased Reaction Biology Corp
T4 sequence (O43781 1-588): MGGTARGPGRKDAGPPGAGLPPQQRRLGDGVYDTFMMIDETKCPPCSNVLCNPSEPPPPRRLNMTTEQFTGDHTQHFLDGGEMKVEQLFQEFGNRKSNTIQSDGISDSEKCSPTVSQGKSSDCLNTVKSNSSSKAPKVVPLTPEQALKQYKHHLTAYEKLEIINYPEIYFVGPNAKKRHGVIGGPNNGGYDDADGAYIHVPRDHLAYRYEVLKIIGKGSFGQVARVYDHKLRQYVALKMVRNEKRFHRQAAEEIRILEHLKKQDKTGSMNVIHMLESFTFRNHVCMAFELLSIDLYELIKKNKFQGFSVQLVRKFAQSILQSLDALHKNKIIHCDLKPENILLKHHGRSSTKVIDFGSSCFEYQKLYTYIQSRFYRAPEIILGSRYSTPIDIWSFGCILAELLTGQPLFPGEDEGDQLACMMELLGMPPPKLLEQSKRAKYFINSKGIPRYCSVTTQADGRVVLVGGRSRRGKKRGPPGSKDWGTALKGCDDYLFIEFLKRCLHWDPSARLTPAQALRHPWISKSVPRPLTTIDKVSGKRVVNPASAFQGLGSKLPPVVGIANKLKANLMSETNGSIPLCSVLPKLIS
Protocol: as §1, §2

DYRK1B = biological target: T5, DYRK1B (Homo sapiens, UniProt Q9Y463)
T5 construct: purchased Reaction Biology Corp
Protocol: as §1, §2

PKCtheta = biological target: T6, PKCtheta (Homo sapiens, UniProt Q04759)
T6 construct: purchased Reaction Biology Corp
Protocol: as §1, §2

STK16 = biological target: T7, STK16 (Homo sapiens, UniProt O75716)
T7 construct: purchased Reaction Biology Corp
Protocol: as §1, §2

[1] = read-out: % Enzyme Activity (relative to DMSO controls) Run 1
[2] = read-out: % Enzyme Activity (relative to DMSO controls) Run 2

T3 sequence (Q9BYP7 whole entry): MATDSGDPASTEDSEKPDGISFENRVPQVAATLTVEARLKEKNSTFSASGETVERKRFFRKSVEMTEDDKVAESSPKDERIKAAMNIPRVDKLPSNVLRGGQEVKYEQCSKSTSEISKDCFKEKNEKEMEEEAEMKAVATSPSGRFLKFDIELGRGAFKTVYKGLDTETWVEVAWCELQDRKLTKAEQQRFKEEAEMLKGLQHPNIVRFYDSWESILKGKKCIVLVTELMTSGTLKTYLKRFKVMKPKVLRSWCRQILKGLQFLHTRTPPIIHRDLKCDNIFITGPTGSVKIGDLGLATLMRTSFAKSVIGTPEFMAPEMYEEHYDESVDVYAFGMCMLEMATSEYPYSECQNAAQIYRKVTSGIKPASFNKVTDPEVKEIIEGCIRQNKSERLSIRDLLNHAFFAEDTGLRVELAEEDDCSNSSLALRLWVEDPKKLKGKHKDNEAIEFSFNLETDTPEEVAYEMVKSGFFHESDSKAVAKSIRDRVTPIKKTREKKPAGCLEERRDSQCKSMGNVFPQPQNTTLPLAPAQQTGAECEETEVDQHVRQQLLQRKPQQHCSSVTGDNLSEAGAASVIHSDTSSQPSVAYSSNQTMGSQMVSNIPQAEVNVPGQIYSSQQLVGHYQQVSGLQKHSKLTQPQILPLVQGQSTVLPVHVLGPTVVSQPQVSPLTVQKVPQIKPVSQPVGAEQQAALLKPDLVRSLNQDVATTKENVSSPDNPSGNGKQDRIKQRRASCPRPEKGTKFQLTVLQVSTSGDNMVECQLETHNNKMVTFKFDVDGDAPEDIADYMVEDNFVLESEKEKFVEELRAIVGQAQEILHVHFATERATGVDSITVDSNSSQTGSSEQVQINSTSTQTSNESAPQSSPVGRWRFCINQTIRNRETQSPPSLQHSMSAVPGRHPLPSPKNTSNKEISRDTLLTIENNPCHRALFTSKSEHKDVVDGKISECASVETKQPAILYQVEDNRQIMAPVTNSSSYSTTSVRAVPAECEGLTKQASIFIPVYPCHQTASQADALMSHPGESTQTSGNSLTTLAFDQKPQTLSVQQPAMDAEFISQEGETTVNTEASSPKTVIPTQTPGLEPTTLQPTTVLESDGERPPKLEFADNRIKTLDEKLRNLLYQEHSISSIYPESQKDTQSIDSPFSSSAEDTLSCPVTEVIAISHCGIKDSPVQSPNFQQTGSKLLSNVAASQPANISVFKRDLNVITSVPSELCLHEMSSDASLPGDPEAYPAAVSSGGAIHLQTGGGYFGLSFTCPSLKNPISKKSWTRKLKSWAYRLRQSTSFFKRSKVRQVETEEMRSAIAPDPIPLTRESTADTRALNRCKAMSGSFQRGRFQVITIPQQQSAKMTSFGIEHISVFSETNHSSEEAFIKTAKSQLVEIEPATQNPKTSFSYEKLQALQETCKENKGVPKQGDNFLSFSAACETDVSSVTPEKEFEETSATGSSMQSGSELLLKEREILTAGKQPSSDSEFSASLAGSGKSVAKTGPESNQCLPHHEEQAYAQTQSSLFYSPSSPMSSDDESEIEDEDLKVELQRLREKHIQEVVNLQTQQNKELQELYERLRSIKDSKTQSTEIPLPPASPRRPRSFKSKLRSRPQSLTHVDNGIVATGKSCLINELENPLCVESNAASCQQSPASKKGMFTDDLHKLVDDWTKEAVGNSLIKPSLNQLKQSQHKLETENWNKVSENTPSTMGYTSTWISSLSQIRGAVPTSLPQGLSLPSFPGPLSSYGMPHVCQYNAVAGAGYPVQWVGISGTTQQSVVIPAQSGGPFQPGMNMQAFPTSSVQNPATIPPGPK
T5 sequence (Q9Y463 whole entry): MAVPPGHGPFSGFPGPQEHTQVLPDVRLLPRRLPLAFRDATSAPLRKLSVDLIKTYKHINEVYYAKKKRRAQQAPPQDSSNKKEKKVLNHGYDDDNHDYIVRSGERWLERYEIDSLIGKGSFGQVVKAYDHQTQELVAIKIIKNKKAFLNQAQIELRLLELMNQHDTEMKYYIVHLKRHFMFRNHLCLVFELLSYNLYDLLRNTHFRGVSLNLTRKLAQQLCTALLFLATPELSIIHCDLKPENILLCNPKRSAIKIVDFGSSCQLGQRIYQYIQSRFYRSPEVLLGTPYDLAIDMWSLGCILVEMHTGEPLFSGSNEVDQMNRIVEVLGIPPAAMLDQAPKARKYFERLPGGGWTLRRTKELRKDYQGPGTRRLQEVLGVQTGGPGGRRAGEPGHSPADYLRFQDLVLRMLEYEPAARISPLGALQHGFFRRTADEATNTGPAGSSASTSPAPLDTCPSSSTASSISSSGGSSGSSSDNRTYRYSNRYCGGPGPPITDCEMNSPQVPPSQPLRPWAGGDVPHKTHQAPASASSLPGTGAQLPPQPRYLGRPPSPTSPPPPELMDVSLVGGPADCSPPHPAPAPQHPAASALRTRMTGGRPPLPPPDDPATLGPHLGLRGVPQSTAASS
T7 sequence (O75716 whole entry): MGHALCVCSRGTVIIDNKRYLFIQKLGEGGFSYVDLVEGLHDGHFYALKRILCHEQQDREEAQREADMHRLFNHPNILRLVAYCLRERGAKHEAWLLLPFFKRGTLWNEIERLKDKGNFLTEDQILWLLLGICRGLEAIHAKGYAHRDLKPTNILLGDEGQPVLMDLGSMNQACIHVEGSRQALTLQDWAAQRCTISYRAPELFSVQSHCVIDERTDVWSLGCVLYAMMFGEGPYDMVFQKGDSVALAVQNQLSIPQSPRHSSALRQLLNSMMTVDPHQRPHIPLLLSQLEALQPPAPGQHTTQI
T6 sequence (Q04759 whole entry): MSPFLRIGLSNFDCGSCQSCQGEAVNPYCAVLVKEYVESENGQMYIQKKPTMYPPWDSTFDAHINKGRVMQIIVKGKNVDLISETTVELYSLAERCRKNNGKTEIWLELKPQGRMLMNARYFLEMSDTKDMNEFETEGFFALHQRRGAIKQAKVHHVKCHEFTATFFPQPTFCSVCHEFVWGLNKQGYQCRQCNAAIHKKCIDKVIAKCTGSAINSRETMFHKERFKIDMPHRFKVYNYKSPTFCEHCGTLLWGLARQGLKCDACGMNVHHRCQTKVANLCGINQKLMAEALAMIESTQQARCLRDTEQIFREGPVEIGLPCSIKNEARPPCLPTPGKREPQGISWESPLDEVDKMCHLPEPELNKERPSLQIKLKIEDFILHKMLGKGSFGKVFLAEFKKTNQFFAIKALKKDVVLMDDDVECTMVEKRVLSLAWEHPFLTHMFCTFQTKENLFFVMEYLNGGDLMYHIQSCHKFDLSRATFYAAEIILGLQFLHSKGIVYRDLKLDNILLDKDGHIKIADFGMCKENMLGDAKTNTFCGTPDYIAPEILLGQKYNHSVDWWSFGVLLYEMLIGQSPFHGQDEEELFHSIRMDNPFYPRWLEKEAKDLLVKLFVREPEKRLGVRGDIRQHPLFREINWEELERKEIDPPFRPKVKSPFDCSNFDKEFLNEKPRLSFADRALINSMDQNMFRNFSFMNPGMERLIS

C=CC(=O)Nc1cccc(Nc2nc(Nc3ccc(OCCOC)c(F)c3)ncc2F)c1 [Compound 2]
inhibition at 3 µM (ALK5/TGFBR1): -8.03%
remaining activity at 3 µM (ALK5/TGFBR1; [1]): 106%
remaining activity at 3 µM (ALK5/TGFBR1; [2]): 110%
inhibition at 3 µM (MAPKAPK5/PRAK): -11.6%
remaining activity at 3 µM (MAPKAPK5/PRAK; [1]): 110%
remaining activity at 3 µM (MAPKAPK5/PRAK; [2]): 113%
inhibition at 3 µM (WNK3): 8.34%
remaining activity at 3 µM (WNK3; [1]): 91.3%
remaining activity at 3 µM (WNK3; [2]): 92%
inhibition at 3 µM (DYRK3): 14.1%
remaining activity at 3 µM (DYRK3; [1]): 86%
remaining activity at 3 µM (DYRK3; [2]): 85.9%
inhibition at 3 µM (DYRK1B): 20.2%
remaining activity at 3 µM (DYRK1B; [1]): 78.6%
remaining activity at 3 µM (DYRK1B; [2]): 80.9%
inhibition at 3 µM (PKCtheta): 16.1%
remaining activity at 3 µM (PKCtheta; [1]): 83.7%
remaining activity at 3 µM (PKCtheta; [2]): 84.1%
inhibition at 3 µM (STK16): 78%
remaining activity at 3 µM (STK16; [1]): 22.9%
remaining activity at 3 µM (STK16; [2]): 21%
